Measured values published in the supplement of paper PMC4862054.

Key:
Experiment in all cases: normalised viability (% of control), CellTiter-Blue; higher = more viable cells (about 100 = DMSO control)
Conditions in all cases: incubation time: 72 h
HCC1937 = test system: HCC1937
Summary of the method: (§1)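 After 72 h on compound-loaded 384-well plates, breast cancer cell lines received 2.5 µl CellTiter-Blue reagent for 2 h at 37 °C. Fluorescence at 560/590 nm was scaled per plate so that vehicle was 100 and a positive kill control was 0. The value stands for normalised viability at a single listed concentration of the series.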

CAL-148 = test system: CAL-148
Summary of the method: as §1

SK-BR-3 = test system: SK-BR-3
Summary of the method: as §1

MDA-MB-453 = test system: MDA-MB-453
Summary of the method: as §1

MDA-MB-468 = test system: MDA-MB-468
Summary of the method: as §1

MDA-MB-436 = test system: MDA-MB-436
Summary of the method: as §1

CAL-51 = test system: CAL-51
Summary of the method: as §1

MDA-MB-231 = test system: MDA-MB-231
Summary of the method: as §1

Hs578T = test system: Hs578T
Summary of the method: as §1

HCC1143 = test system: HCC1143
Summary of the method: as §1

MFM-223 = test system: MFM-223
Summary of the method: as §1

HCC1599 = test system: HCC1599
Summary of the method: as §1

BT-474 = test system: BT-474
Summary of the method: as §1

HDQ-P1 = test system: HDQ-P1
Summary of the method: as §1

DU-4475 = test system: DU-4475
Summary of the method: as §1

BT-549 = test system: BT-549
Summary of the method: as §1

CAL-85-1 = test system: CAL-85-1
Summary of the method: as §1

CC(=O)[C@]1(O)Cc2c(O)c3c(c(O)c2[C@@H](O[C@H]2C[C@H](N)[C@H](O)[C@H](C)O2)C1)C(=O)c1ccccc1C3=O [Idarubicin]
normalised viability [%]
Conditions	0.3 nM	1 nM	3 nM	10 nM	100 nM	1000 nM
BT-474	–	97.3	–	–	61.8	7.38
BT-549	–	108	–	–	50	9.06
CAL-51	106	–	98	44.2	–	–
CAL-85-1	104	–	91.9	94.3	–	–
CAL-148	91.7	–	93.2	63.2	–	–
DU-4475	89.8	–	90.2	55.7	–	–
HCC1143	–	96	–	–	61	30.1
HCC1599	–	111	–	–	102	49.2
HCC1937	–	90.3	–	–	22.1	21.3
HDQ-P1	118	–	120	104	–	–
Hs578T	–	107	–	–	57.1	5.7
MDA-MB-231	–	101	–	–	41.5	8.68
MDA-MB-436	–	113	–	–	57.5	18.8
MDA-MB-453	108	–	98.4	100	–	–
MDA-MB-468	–	100	–	–	41.2	4.98
MFM-223	–	107	–	–	92.5	11.5
SK-BR-3	–	107	–	–	26.4	4.23

C/C(=C\c1csc(C)n1)[C@@H]1C[C@@H]2O[C@]2(C)CCC[C@H](C)[C@H](O)[C@@H](C)C(=O)C(C)(C)[C@@H](O)CC(=O)N1 [Ixabepilone]
normalised viability [%]
Conditions	0.3 nM	1 nM	3 nM	10 nM	100 nM	1000 nM
BT-474	–	109	–	–	115	26
BT-549	–	69.2	–	–	96.9	19.6
CAL-51	110	–	107	107	–	–
CAL-85-1	83.4	–	87.8	88.9	–	–
CAL-148	95.2	–	97.1	92.8	–	–
DU-4475	95.4	–	77	92.4	–	–
HCC1143	–	79.3	–	–	80.7	25.6
HCC1599	–	98.5	–	–	87.6	81.2
HCC1937	–	87.5	–	–	89.1	17.2
HDQ-P1	91.1	–	76.4	95.3	–	–
Hs578T	–	107	–	–	98.8	25
MDA-MB-231	–	84.7	–	–	51.6	16.8
MDA-MB-436	–	88.8	–	–	90.1	51.7
MDA-MB-453	108	–	87.4	87.3	–	–
MDA-MB-468	–	97.8	–	–	88.5	45.4
MFM-223	–	76.8	–	–	75.8	31.6
SK-BR-3	–	87.8	–	–	82.5	12.6

C=CCn1c(=O)c2cnc(Nc3ccc(N4CCN(C)CC4)cc3)nc2n1-c1cccc(C(C)(C)O)n1 [MK1775]
normalised viability [%]
Conditions	3 nM	10 nM	30 nM	100 nM	1000 nM	10000 nM
BT-474	–	94	–	–	33.9	35.7
BT-549	–	103	–	–	31	9.32
CAL-51	98.9	–	90.8	87	–	–
CAL-85-1	79.6	–	80.9	78.6	–	–
CAL-148	85.1	–	92.8	81.5	–	–
DU-4475	87.8	–	98.3	75.7	–	–
HCC1143	–	109	–	–	55.7	23.7
HCC1599	–	86.4	–	–	59	45.3
HCC1937	–	77.7	–	–	34.1	27.2
HDQ-P1	92.9	–	98.5	94.4	–	–
Hs578T	–	111	–	–	34.4	16.2
MDA-MB-231	–	84	–	–	26.9	16.9
MDA-MB-436	–	113	–	–	37	21.4
MDA-MB-453	89.6	–	86.3	88.7	–	–
MDA-MB-468	–	110	–	–	46.3	10.1
MFM-223	–	102	–	–	44.3	40.1
SK-BR-3	–	79.8	–	–	9.36	10.2

CN(Cc1cnc2nc(N)nc(N)c2n1)c1ccc(C(=O)N[C@@H](CCC(=O)O)C(=O)O)cc1 [Methotrexate]
normalised viability [%]
Conditions	3 nM	10 nM	30 nM	100 nM	1000 nM	10000 nM
BT-474	–	115	–	–	118	128
BT-549	–	91.4	–	–	78.6	95.7
CAL-51	108	–	101	62.6	–	–
CAL-85-1	98.5	–	84	78	–	–
CAL-148	99.8	–	91.5	67.3	–	–
DU-4475	102	–	99.3	101	–	–
HCC1143	–	87.8	–	–	68.9	65.4
HCC1599	–	102	–	–	75.6	103
HCC1937	–	86.5	–	–	72.1	76.1
HDQ-P1	108	–	95.5	96	–	–
Hs578T	–	106	–	–	86.5	79.4
MDA-MB-231	–	94.2	–	–	94.7	94.1
MDA-MB-436	–	111	–	–	64.4	93.6
MDA-MB-453	108	–	102	90.7	–	–
MDA-MB-468	–	90.7	–	–	41.5	42.7
MFM-223	–	108	–	–	107	100
SK-BR-3	–	95.9	–	–	52	52.8

COc1c2occc2cc2ccc(=O)oc12 [Methoxsalen]
normalised viability [%]
Conditions	3 nM	10 nM	30 nM	100 nM	1000 nM	10000 nM
BT-474	–	123	–	–	102	117
BT-549	–	90.9	–	–	104	82.9
CAL-51	109	–	109	104	–	–
CAL-85-1	92.9	–	92.6	92.5	–	–
CAL-148	98.7	–	95.8	100	–	–
DU-4475	95.6	–	111	111	–	–
HCC1143	–	91.8	–	–	99.1	94.2
HCC1599	–	106	–	–	85	93.5
HCC1937	–	68.3	–	–	36	77.7
HDQ-P1	115	–	104	105	–	–
Hs578T	–	55.3	–	–	138	110
MDA-MB-231	–	102	–	–	99.1	112
MDA-MB-436	–	90.6	–	–	87.1	93.8
MDA-MB-453	119	–	103	112	–	–
MDA-MB-468	–	107	–	–	112	105
MFM-223	–	100	–	–	101	50.5
SK-BR-3	–	104	–	–	127	104
